Assay results reported in publication PMC6694038, “Pharmacogenomic–pharmacokinetic study of selective estrogen-receptor modulators with intra-patient dose escalation in breast cancer” (Breast Cancer (Tokyo, Japan), 2019).

Columns and labels:
[1] = Plasma concentrations of TAM, TOR and their metabolites by LC–MS/MS (screening study)
[2] = weighting of plasma concentration; cited from earlier work
[3] = Hot flush grade (CTCAE v3.0) in the screening study; type: in vivo, breast cancer patients
From the text: We obtained data on compliance and the grade of hot flush as defined by the Common Terminology Criteria for Adverse Events v3.0.

[4] = patients on TAM 20 mg a day, N=182
[5] = 14 patients of the dose-escalation study

For `CC/C(=C(\c1ccc(O)cc1)c1ccc(OCCN(C)C)cc1)c1ccccc1` [4OH-TAM], the “Plasma concentration, max” value [1, 4] was 9.5 ng/mL, the “Plasma concentration, mean” value [1, 4] was 3.6 ng/mL and the “Plasma concentration, median” value [1, 4] was 3.3 ng/mL. The “Plasma concentration, min” value [1, 4] was 0.2 ng/mL and the “In vitro activity factor in the total activity of TAM (TAM = 1.0)” value (“In vitro activity factor … (TAM = 1.0)” below) [2] was 116.
With `CNCCOc1ccc(/C(=C(/CCCl)c2ccccc2)c2ccccc2)cc1` [NDM-TOR] the “Plasma concentration, max” value ([1]; patients on TOR 40 mg, N=61) was 2820.0 ng/mL, the “Plasma concentration, mean” value ([1]; patients on TOR 40 mg, N=61) was 1373.7 ng/mL and the “Plasma concentration, median” value ([1]; patients on TOR 40 mg, N=61) was 1350.0 ng/mL. For the same molecule, the “Plasma concentration, min” value ([1]; patients on TOR 40 mg, N=61) was 601.0 ng/mL, the “Plasma concentration, max” value ([1]; patients on TOR 120 mg, N=27) was 5430.0 ng/mL and the “Plasma concentration, mean” value ([1]; patients on TOR 120 mg, N=27) was 3594.4 ng/mL. The “Plasma concentration, median” value ([1]; patients on TOR 120 mg, N=27) was 3500.0 ng/mL, the “Plasma concentration, min” value ([1]; patients on TOR 120 mg, N=27) was 1380.0 ng/mL and the “In vitro activity factor in the total activity of TOR (TOR = 1.0)” value (“In vitro activity factor … (TOR = 1.0)” below) [2] was 0.764.
For `CC/C(=C(\c1ccccc1)c1ccc(OCCN(C)C)cc1)c1ccccc1` [TAM, tamoxifen], the “Plasma concentration, max” value [1, 4] was 552.0 ng/mL, the “Plasma concentration, mean” value [1, 4] was 174.7 ng/mL and the “Plasma concentration, median” value [1, 4] was 163.0 ng/mL. The “Plasma concentration, min” value [1, 4] was 38.5 ng/mL, the “In vitro activity factor … (TAM = 1.0)” value [2] was 1.0 and the “Hot flush grade 0 on TAM 20 mg, % of patients” value [3, 5] was 57.1%. The “Hot flush grade 0 on TAM 20 mg, patients” value [3, 5] was 8, the “Hot flush grade 1 on TAM 20 mg, % of patients” value [3, 5] was 28.6% and the “Hot flush grade 1 on TAM 20 mg, patients” value [3, 5] was 4. For the same molecule, the “Hot flush grade 2 on TAM 20 mg, % of patients” value [3, 5] was 14.3%, the “Hot flush grade 2 on TAM 20 mg, patients” value [3, 5] was 2 and the “Hot flush grade 0, % of patients” value ([3]; TAM 20 mg, screening study) was 56.8%. For the same molecule, the “Hot flush grade 1, % of patients” value ([3]; TAM 20 mg, screening study) was 31.4%, the “Hot flush grade 1, patients” value ([3]; TAM 20 mg, screening study) was 58 and the “Hot flush grade 2, % of patients” value ([3]; TAM 20 mg, screening study) was 11.4%. For the same molecule, the “Hot flush grade 2, patients” value ([3]; TAM 20 mg, screening study) was 21, the “Hot flush grade 3, % of patients” value ([3]; TAM 20 mg, screening study) was 0.5% and the “Hot flush grade 3, patients” value ([3]; TAM 20 mg, screening study) was 1.
In the case of `CC/C(=C(\c1ccccc1)c1ccc(OCCNC)cc1)c1ccccc1` [NDM-TAM], the “Plasma concentration, max” value [1, 4] is reported as 1090.0 ng/mL, the “Plasma concentration, mean” value [1, 4] is reported as 283.2 ng/mL and the “Plasma concentration, median” value [1, 4] is reported as 271.0 ng/mL. The “Plasma concentration, min” value [1, 4] was 59.2 ng/mL and the “In vitro activity factor … (TAM = 1.0)” value [2] was 0.655.
For `CNCCOc1ccc(/C(=C(/CCCl)c2ccccc2)c2ccc(O)cc2)cc1` [4OH-NDM-TOR], the “Plasma concentration, max” value ([1]; patients on TOR 40 mg, N=61) was 68.8 ng/mL, the “Plasma concentration, mean” value ([1]; patients on TOR 40 mg, N=61) was 15.4 ng/mL and the “Plasma concentration, median” value ([1]; patients on TOR 40 mg, N=61) was 13.4 ng/mL. For the same molecule, the “Plasma concentration, min” value ([1]; patients on TOR 40 mg, N=61) was 4.5 ng/mL, the “Plasma concentration, max” value ([1]; patients on TOR 120 mg, N=27) was 52.9 ng/mL and the “Plasma concentration, mean” value ([1]; patients on TOR 120 mg, N=27) was 32.6 ng/mL. The “Plasma concentration, median” value ([1]; patients on TOR 120 mg, N=27) was 34.3 ng/mL, the “Plasma concentration, min” value ([1]; patients on TOR 120 mg, N=27) was 11.5 ng/mL and the “In vitro activity factor … (TOR = 1.0)” value [2] was 91.9.
With `CN(C)CCOc1ccc(/C(=C(/CCCl)c2ccccc2)c2ccc(O)cc2)cc1` [4OH-TOR] the “Plasma concentration, max” value ([1]; patients on TOR 40 mg, N=61) was 16.4 ng/mL, the “Plasma concentration, mean” value ([1]; patients on TOR 40 mg, N=61) was 8.1 ng/mL and the “Plasma concentration, median” value ([1]; patients on TOR 40 mg, N=61) was 6.9 ng/mL. The “Plasma concentration, min” value ([1]; patients on TOR 40 mg, N=61) was 2.4 ng/mL, the “Plasma concentration, max” value ([1]; patients on TOR 120 mg, N=27) was 31.2 ng/mL and the “Plasma concentration, mean” value ([1]; patients on TOR 120 mg, N=27) was 16.0 ng/mL. The “Plasma concentration, median” value ([1]; patients on TOR 120 mg, N=27) was 14.6 ng/mL, the “Plasma concentration, min” value ([1]; patients on TOR 120 mg, N=27) was 5.5 ng/mL and the “In vitro activity factor … (TOR = 1.0)” value [2] was 98.0.
